A short description of the data set: Liver microsomal stability, statements across species. The settings on record: CD1 (mouse), IGS Sprague-Dawley (rat), Beagle (dog), human, pooled liver microsomes, pH 7.4. The format is in vitro ADME. As for the experimental part:
Pooled liver microsomes from CD1 mouse, IGS Sprague-Dawley rat, Beagle dog, and mixed gender human were used for assays. Incubations (1 mL) consisted of liver microsomes (0.5 mg/mL), NADPH (1 mM) and 100 mM sodium phosphate buffer (pH 7.4). Following pre-incubation (10 min, 37 °C), reactions were initiated by spiking ACN/DMSO (80:20) stock solutions of GE phenolics (5 μL, 10 μM). Samples (100 μL) were withdrawn at 0, 5, 10, 15, 20 and 30 min and quenched with 200 μL acetonitrile containing internal standard. Concomitant NADPH-free control incubations were prepared similarly.
A general note: Liver microsomes are vesicles of endoplasmic reticulum, rich in cytochrome P450 enzymes.

The half-life is the time in which the quantity being followed falls by half. A lower half-life goes with fast loss.

With `CCCCCCCC(O)CC(=O)CCc1ccc(O)c(OC)c1` (centres unmarked) [8G, 8-gingerol], the half-life at 10 µM was less than 30 min.
With `CCCCC/C=C/C(=O)CCc1ccc(O)c(OC)c1` [6S, 6-shogaol] the figure was less than 30 min.

Source of the values: PMC6154694, “Absorption, Metabolic Stability, and Pharmacokinetics of Ginger Phytochemicals” (Molecules : A Journal of Synthetic Chemistry and Natural …, 2017).
